Measurements as given in patent EP1263429B1, “ANTIVIRAL THERAPY” (Universiteit Utrecht, priority 2000, dated 2001).

What was measured:
HIV-1 = test: IC50 determination of an anti-viral (Table 3); type: cell-based; settings: Human immunodeficiency virus 1
HIV-1Ba-L = test: HIV-1 replication in acutely infected monocyte-derived macrophages (MDM), p24-core antigen ELISA; type: cell-based
Experimental: PBMC are isolated from heparinized blood from HIV-1-, HIV-2-, and hepatitis B-seronegative donors and obtained on Ficoll-Hypaque density gradients. Cells are washed twice and monocytes are purified by countercurrent centrifugal elutriation. Cells are >98% monocytes by criteria of cell morphology on May-Grünwald-Giemsa-stained cytosmears and by nonspecific esterase staining using alpha-naphtylacetate (Sigma Chemical Co., St. Louis, MO) as substrate. Monocytes are cultured in suspension at a concentration of 2 x 10^6 cells/ml in Teflon flasks (Nalgene, Rochester, NY) in Iscove's modified Dulbeco's medium (IMDM) with 10% heat-inactivated human AB serum negative for anti-HIV antibodies, […], and […] (Sigma) for 7 days.
HIV-1 strain Ba-L is grown to high titer in MDM. The 50% tissue culture infectious dose (TCID50) of the virus stock is determined by endpoint dilution with serial fourfold dilutions in a 96-well microtiter plate on MDM. […] The TCID50 of the virus stock is determined by endpoint dilution with serial fourfold dilutions in a 96-well microtiter plate on PBMC.
MDM, and PBMC, were incubated with HIV at a multiplicity of infection of 0.02, and 0.006 or 0.001, respectively. […] The presence of HIV-1 in the inactivated supernatant is monitored by checking for the p24-core antigen using the enzyme-linked immunosorbent assay (ELISA) system of John Moore. […]

For `CCCCC#CCSc1ccccc1OC(C)=O` [APHS, o-(acetoxy-phenyl)hept-2-ynyl sulphide], the IC50 (HIV-1) was 10 µM, the “APHS concentrations that inhibit p24 production by acutely infected MDM” value (HIV-1Ba-L; 96 h) was “above 3 :M” and the inhibition at 30 µM (HIV-1Ba-L; Human immunodeficiency virus 1, Macrophage, 30 µM APHS, Fig 2, MDM, multiplicity of infection 0.02) was 88%.
